From ChEMBL document CHEMBL1124211, “Synthesis and in vitro activity of various derivatives of a novel thromboxane receptor antagonist, (+/-)-(5Z)-7-[3-endo-[(phenylsulfonyl)amino]bicyclo[2.2.1] hept-2-exo-yl]heptenoic acid” (J Med Chem, 1988) come the findings set out here.

For assay [1], the species on record is Rattus norvegicus. As to the kind of experiment: Inhibition of rat washed platelet aggregation induced by 4 ug/mL of collagen. The class given is functional.
For assay [2], the species on record is Rattus norvegicus. The assay can be described thus: Inhibitory activity against rat thoracic aorta contraction induced by 30 nM U-46619. Type of assay: functional.
The species entered for the next assay is Oryctolagus cuniculus. As to the kind of experiment: Inhibition of rabbit platelet rich plasma aggregation induced by 500 uM of arachidonic acid. The class given is functional.
Assay [3] is filed under the species Homo sapiens. As to the kind of experiment: Effect on the synthesis of Thromboxane A2 at dose of 20 uM. The class given is functional, organism-based.
The species named for assay [4] is Homo sapiens. As to the kind of experiment: The synthesis of cyclooxygenase or lipoxygenase derived products (HHT and HETE) in human washed platelets at dose of 20 uM. Type of assay: functional, organism-based.
For assay [5], the species on record is Homo sapiens. As to the kind of experiment: Effect on the synthesis of metabolites of arachidonic acid in human platelets. Type of assay: functional.
Assay [6] is filed under the species Homo sapiens. The assay can be described thus: The synthesis of cyclooxygenase or lipoxygenase derived products (HHT and HETE) in human washed platelets. The class given is functional.
The species named for assay [7] is Homo sapiens. The assay can be described thus: Effect on the synthesis of Thromboxane A2. Type of assay: functional, organism-based.
In assay [8] the target is T1, Thromboxane-A synthase (Homo sapiens) (UniProt P24557).
T1 sequence (whole entry): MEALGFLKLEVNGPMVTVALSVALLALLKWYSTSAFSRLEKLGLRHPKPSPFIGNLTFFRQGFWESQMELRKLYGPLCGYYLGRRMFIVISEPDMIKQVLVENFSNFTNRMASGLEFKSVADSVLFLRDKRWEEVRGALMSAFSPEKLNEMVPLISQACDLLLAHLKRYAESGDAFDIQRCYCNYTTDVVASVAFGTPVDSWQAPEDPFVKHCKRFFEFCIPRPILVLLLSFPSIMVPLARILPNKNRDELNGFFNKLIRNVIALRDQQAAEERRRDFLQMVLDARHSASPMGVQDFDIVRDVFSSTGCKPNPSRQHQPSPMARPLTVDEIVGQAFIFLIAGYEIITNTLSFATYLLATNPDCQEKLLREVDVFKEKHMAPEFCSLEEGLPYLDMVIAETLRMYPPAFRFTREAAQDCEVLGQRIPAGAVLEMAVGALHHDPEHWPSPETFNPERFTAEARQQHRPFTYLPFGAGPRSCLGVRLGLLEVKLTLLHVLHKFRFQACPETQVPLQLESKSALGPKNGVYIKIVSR
The assay can be described thus: Inhibition of thromboxane A2 synthetase from human platelets by 10 uM expressed as percent of radioactivity recovered.

The species named for assay [9] is Homo sapiens. As to the kind of experiment: Effect on the synthesis of metabolites of arachidonic acid in human platelets at a dose of 1 uM. The class given is functional.
The species named for assay [10] is Homo sapiens. The assay can be described thus: Effect on cyclooxygenase or lipoxygenase derived products(HHT and HETE) in human washed platelets at dose of 1 uM expressed as percent of radioactivity recovered. Type of assay: functional.
For assay [11], the species on record is Homo sapiens. The assay can be described thus: Effect on cyclooxygenase or lipoxygenase derived products (HHT and HETE) in human washed platelets at a dose of 10 uM as percent of radioactivity recovered. Type of assay: functional.
The species entered for assay [12] is Homo sapiens. As to the kind of experiment: Effect on the synthesis of metabolites of arachidonic acid in human platelets at dose of 10 uM expressed as percent of radioactivity recovered. Type of assay: functional.
Where [13] appears, read: Rattus norvegicus, Thoracic aorta.

A value given as a limit tells only on which side of the number the result lay.

As a reminder, the IC50 is the point on the concentration scale where inhibition reaches its midpoint. With `O=C(O)CCC/C=C\C[C@@H]1[C@H](CNNC(=O)Nc2ccccc2)[C@H]2CC[C@H]1O2`, the IC50 in the assay filed under Rattus norvegicus [1] (Rattus norvegicus) was 3 nM; in the assay filed under Rattus norvegicus [2] (setting [13]), 14.5 nM; in the assay filed under Oryctolagus cuniculus (Oryctolagus cuniculus, Plasma), 9 µM.
Turning to `COc1ccc(S(=O)(=O)N[C@H]2C3CC[C@H](C3)[C@@H]2C/C=C\CCCC(=O)O)cc1`, the IC50 was 3.9 nM in the assay listed under Rattus norvegicus [1] (Rattus norvegicus) and 1.7 µM in the assay listed under Oryctolagus cuniculus (Oryctolagus cuniculus, Plasma).
`O=C(O)CCC/C=C\C[C@H]1[C@@H]2CCC(C2)[C@@H]1NS(=O)(=O)c1ccccc1` (stereo in doubt; 14a) [listing 1 of 2 here]: the IC50 in the assay listed under Rattus norvegicus [1] stood at 2.9 nM; in the assay listed under Rattus norvegicus [2] it was 1.4 nM.
For the molecule `O=C(O)CCC/C=C\C[C@H]1[C@@H]2CCC(C2)[C@@H]1NS(=O)(=O)c1ccc(Cl)cc1`, the 50% inhibitory concentration (IC50) came out at 2.9 nM in the assay filed under Rattus norvegicus [1] (Rattus norvegicus) and 0.3 µM in the assay filed under Oryctolagus cuniculus (Oryctolagus cuniculus, Plasma).
For `Cc1cccc(S(=O)(=O)N[C@H]2C3CC[C@H](C3)[C@@H]2C/C=C\CCCC(=O)O)c1`, the 50% inhibitory concentration (IC50) in the assay listed under Rattus norvegicus [1] (Rattus norvegicus) amounted to 5.6 nM; in the assay listed under Rattus norvegicus [2] (setting [13]) it was 3.2 nM; in the assay filed under Oryctolagus cuniculus (Oryctolagus cuniculus, Plasma) it was 1.7 µM.
For the molecule `CN(C)c1ccc(S(=O)(=O)N[C@H]2C3CC[C@H](C3)[C@@H]2C/C=C\CCCC(=O)O)cc1`, the 50% inhibitory concentration (IC50) in the assay listed under Rattus norvegicus [1] (Rattus norvegicus) was 52 nM; in the assay filed under Oryctolagus cuniculus (Oryctolagus cuniculus, Plasma) it was 7.1 µM.
Take `O=C(O)CCC/C=C\C[C@H]1[C@@H]2CCC(C2)[C@@H]1NS(=O)(=O)c1ccccc1` (single isomer, unassigned; (+)): the IC50 came out at 1.8 nM in the assay filed under Rattus norvegicus [1], 0.49 nM in the assay filed under Rattus norvegicus [2] and 0.6 µM in the assay filed under Oryctolagus cuniculus.
As for `O=C(O)CCC/C=C\C[C@H]1[C@@H]2CCC(C2)[C@@H]1NS(=O)(=O)Cc1ccccc1`, the IC50 in the assay listed under Rattus norvegicus [1] (Rattus norvegicus) is 26 nM; in the assay listed under Rattus norvegicus [2] (setting [13]), 111 nM; in the assay filed under Oryctolagus cuniculus (Oryctolagus cuniculus, Plasma), 113 µM.
On to `CCc1ccc(S(=O)(=O)N[C@H]2C3CC[C@H](C3)[C@@H]2C/C=C\CCCC(=O)O)cc1`, for which the IC50 in the assay listed under Rattus norvegicus [1] (Rattus norvegicus) worked out at 3.3 nM; in the assay filed under Rattus norvegicus [2] (setting [13]), 1.5 nM; in the assay filed under Oryctolagus cuniculus (Oryctolagus cuniculus, Plasma), 4.6 µM.
Turning to `O=C(O)CCC/C=C\C[C@H]1[C@@H]2CCC(C2)[C@@H]1NS(=O)(=O)CCCc1ccccc1`, the half-inhibitory concentration (IC50) was 10.9 nM in the assay listed under Rattus norvegicus [1] (Rattus norvegicus); 10.9 nM in the assay listed under Rattus norvegicus [2] (setting [13]); 14 µM in the assay listed under Oryctolagus cuniculus (Oryctolagus cuniculus, Plasma).
Regarding `O=C(O)CCC/C=C\C[C@H]1[C@@H]2CCC(C2)[C@@H]1NC(=O)c1ccccc1`, the half-inhibitory concentration (IC50) in the assay filed under Rattus norvegicus [1] (Rattus norvegicus) was 450 nM; in the assay filed under Rattus norvegicus [2] (setting [13]) it was 3410 nM; in the assay listed under Oryctolagus cuniculus (Oryctolagus cuniculus, Plasma) it was greater than 800 µM.
For `O=C(O)CCC/C=C\C[C@H]1[C@@H]2CCC(C2)[C@@H]1NS(=O)(=O)c1ccc(O)cc1`, the half-maximal inhibitory concentration (IC50) in the assay filed under Rattus norvegicus [1] (Rattus norvegicus) came out at 4 nM; in the assay listed under Oryctolagus cuniculus (Oryctolagus cuniculus, Plasma) it was 0.5 µM.
Turning to `O=C(O)CCC/C=C\C[C@H]1[C@@H]2CCC(C2)[C@@H]1NS(=O)(=O)c1ccc(F)cc1`, the IC50 in the assay filed under Rattus norvegicus [1] (Rattus norvegicus) was 2.9 nM; in the assay listed under Oryctolagus cuniculus (Oryctolagus cuniculus, Plasma) it was 0.6 µM.
On to `Cc1ccccc1S(=O)(=O)N[C@H]1C2CC[C@H](C2)[C@@H]1C/C=C\CCCC(=O)O`, for which the IC50 in the assay filed under Rattus norvegicus [1] (Rattus norvegicus) amounted to 4.3 nM; in the assay filed under Rattus norvegicus [2] (setting [13]), 3.7 nM; in the assay filed under Oryctolagus cuniculus (Oryctolagus cuniculus, Plasma), 6.2 µM.
As to `COc1ccc2c(c1)c(CC(=O)O)c(C)n2C(=O)c1ccc(Cl)cc1`, the Recovery stood at 0.34% in the assay filed under Homo sapiens [3], 15% in the assay filed under Homo sapiens [4] and 28.4% in the assay listed under Homo sapiens [5].
Regarding `O=C(O)CCC/C=C\C[C@H]1[C@@H]2CCC(C2)[C@@H]1NS(=O)(=O)c1cccc2ccccc12`, the IC50 was 2.7 nM in the assay filed under Rattus norvegicus [1] (Rattus norvegicus); 2.7 nM in the assay listed under Rattus norvegicus [2] (setting [13]); 1.1 µM in the assay filed under Oryctolagus cuniculus (Oryctolagus cuniculus, Plasma).
Turning to `O=C(O)CCC/C=C\C[C@H]1[C@@H]2CCC(C2)[C@@H]1NS(=O)(=O)CCc1ccccc1`, the IC50 in the assay listed under Rattus norvegicus [1] (Rattus norvegicus) was found to be 3.7 nM; in the assay listed under Rattus norvegicus [2] (setting [13]) it was 3.4 nM; in the assay filed under Oryctolagus cuniculus (Oryctolagus cuniculus, Plasma), 8.2 µM.
For the molecule `CCCCCc1ccc(S(=O)(=O)N[C@H]2C3CC[C@H](C3)[C@@H]2C/C=C\CCCC(=O)O)cc1`, the concentration for half-maximal inhibition (IC50) in the assay filed under Rattus norvegicus [1] (Rattus norvegicus) was 14.5 nM; in the assay listed under Oryctolagus cuniculus (Oryctolagus cuniculus, Plasma) it was 800 µM.
Turning to `O=C(O)c1ccc(OCCn2ccnc2)cc1`, the Recovery in the assay filed under Homo sapiens [6] turned out to be 19.3%; in the assay listed under Homo sapiens [5] it was 11.8%; in the assay filed under Homo sapiens [7], 0.74%.
Take `O=C(O)CCC/C=C\C[C@H]1[C@@H]2CCC(C2)[C@@H]1NS(=O)(=O)c1ccccc1` (single isomer, unassigned; (-)): the values for the IC50 in the assay filed under Rattus norvegicus [1], in the assay listed under Rattus norvegicus [2] and in the assay filed under Oryctolagus cuniculus were 13.4 nM, 15.3 nM and 7.4 µM, respectively.
With `O=C(O)CCC/C=C\C[C@H]1[C@@H]2CCC(C2)[C@@H]1NS(=O)(=O)c1ccc(-c2ccccc2)cc1`, the half-maximal inhibitory concentration (IC50) in the assay listed under Rattus norvegicus [1] (Rattus norvegicus) was determined as 6 nM; in the assay listed under Rattus norvegicus [2] (setting [13]), 9.8 nM; in the assay listed under Oryctolagus cuniculus (Oryctolagus cuniculus, Plasma), 200 µM.
In the case of `O=C(O)CCC/C=C\C[C@H]1[C@@H]2CCC(C2)[C@@H]1NS(=O)(=O)c1ccc([N+](=O)[O-])cc1`, the half-inhibitory concentration (IC50) worked out at 8.9 nM in the assay filed under Rattus norvegicus [1] (Rattus norvegicus) and 1.4 µM in the assay listed under Oryctolagus cuniculus (Oryctolagus cuniculus, Plasma).
`Cc1ccc(S(=O)(=O)N[C@H]2C3CC[C@H](C3)[C@@H]2C/C=C\CCCC(=O)O)cc1`: the IC50 came out at 2.4 nM in the assay listed under Rattus norvegicus [1] (Rattus norvegicus); 0.7 nM in the assay listed under Rattus norvegicus [2] (setting [13]); 0.5 µM in the assay listed under Oryctolagus cuniculus (Oryctolagus cuniculus, Plasma).
Consider `O=C(O)CCC/C=C\C[C@H]1[C@@H]2CCC(C2)[C@@H]1NS(=O)(=O)c1ccc(C(=O)O)cc1`, for which the IC50 was greater than 1000 nM in the assay listed under Rattus norvegicus [1] (Rattus norvegicus) and 800 µM in the assay filed under Oryctolagus cuniculus (Oryctolagus cuniculus, Plasma).
As for `CCCCCCS(=O)(=O)N[C@H]1C2CC[C@H](C2)[C@@H]1C/C=C\CCCC(=O)O`, the IC50 in the assay filed under Rattus norvegicus [1] (Rattus norvegicus) is 19 nM; in the assay filed under Rattus norvegicus [2] (setting [13]), 17.2 nM; in the assay listed under Oryctolagus cuniculus (Oryctolagus cuniculus, Plasma), 13.3 µM.
Take `CS(=O)(=O)N[C@H]1C2CC[C@H](C2)[C@@H]1C/C=C\CCCC(=O)O`: the IC50 is 370 nM in the assay listed under Rattus norvegicus [1] (Rattus norvegicus); 1580 nM in the assay filed under Rattus norvegicus [2] (setting [13]); 640 µM in the assay listed under Oryctolagus cuniculus (Oryctolagus cuniculus, Plasma).
Take `O=C(O)CCC/C=C\C[C@H]1[C@@H]2CCC(C2)[C@@H]1NS(=O)(=O)c1ccccc1` (stereo in doubt; 14a) [listing 2 of 2 here]: the Recovery in assay [8] came to 2.1%; in the assay listed under Homo sapiens [9], 14.3%; in the assay listed under Homo sapiens [10] it was 24%; in the assay listed under Homo sapiens [11] it was 23.2%; in the assay listed under Homo sapiens [12], 14.2%.
